{"source": "patent US20030165545A1", "about": "“Ophthalmic compositions including oil-in-water emulsions, and methods for making and using same” (Allergan, Inc., priority 2002, published 2003)", "system": "Intra Ocular Pressure", "conditions": "about 0.131% in a composition of Example 1", "procedure": "Approximately 0.05 mL of the composition is administered directly to the eye at time 0.", "note": "Like-named read-outs stand apart in the source and are kept apart here."}
{"compound": "Brc1c(NC2=NCCN2)ccc2nccnc12", "note": "[5-bromo-6-(2-imidozolin-2-ylamino) quinoxaline]", "values": [{"measurement": "percent change of Intra Ocular Pressure (mm Hg)", "setting": "1 hr after about 0.05 mL to the eye", "value": "−10.4", "unit": "%"}, {"measurement": "percent change of Intra Ocular Pressure (mm Hg)", "setting": "2 hr after about 0.05 mL to the eye", "value": "−16.0", "unit": "%"}, {"measurement": "percent change of Intra Ocular Pressure (mm Hg)", "setting": "4 hr after about 0.05 mL to the eye", "value": "−09.5", "unit": "%"}, {"measurement": "percent change of Intra Ocular Pressure (mm Hg)", "setting": "6 hr after about 0.05 mL to the eye", "value": "−09.4", "unit": "%"}]}
